Test results reported in patent publication US5532167A, “Substrate specificity of protein kinases” (Beth Israel Hospital, priority 1994, dated 1996).
One block for each compound: values may come before it. Where no end group is shown, it is not given here.

Assays:
[1] = molecular target: PKA (Bos taurus, UniProt P00517); details: relative to Kemptide; cited from earlier work
[2] = molecular target: T1, cyclin A/p33^CDK2 (Homo sapiens, UniProt P24941); assay: Kinetics of cyclin A/p33CDK2 phosphorylating synthetic peptide; type: biochemical; details: peptide as substrate; 10 μM ATP, 10 mM MgCl2, pH 7.0
T1 construct: made in house
Text: (§1) The degenerate peptide library constructed as described in Example 1, with either serine or tyrosine at the 7th position, was used as a substrate for several different protein kinases. Protein kinase A (bovine) was obtained commercially (Sigma). GST-cyclin B/p33^cdc2 (Atherton-Fessler et al. (1993) Mol. Cell. Biol. 13:1675-1685), GST-cyclinA/p33^CDK2 (Atherton-Fessler et al. (1993) Mol. Cell. Biol. 13:1675-1685), human EGF receptor, chicken pp60^v-src, polyoma virus middle T antigen/pp60^c-src (Piwnica-Worms et al. (1990) J. Virol. 64:61-68) and pp92^c-pfs/fes were expressed by baculoviruses. The baculovirus-expressed protein kinases were immobilized on protein A beads using precipitating antibodies or on glutathione-agarose bead for kinases obtained as GST fusion proteins to minimize the problem of separating the peptides from the enzyme or impurities in the enzyme. […]
(§2) The peptide sequences predicted to be optimal substrates for the cyclindependent serine/threonine kinases and for pp60^v-src tyrosine kinase were synthesized to determine whether they are indeed good substrates for these kinases. […] After 2 and a half minutes incubation, the supernatants were spotted on phosphocellulose paper (p81), washed four times with 75 mM phosphoric acid, and radioactivity counted on a scintillation counter. […] The Km and Vmax were calculated using the Kaleidagraph computer software.

[3] = molecular target: T2, EGF receptor (Homo sapiens, UniProt P00533); assay: Kinetics of EGF receptor phosphorylating synthetic peptide; type: biochemical; details: peptide as substrate; 10 μM ATP, 10 mM MnCl2, pH 7.0
T2 construct: made in house
Text: as §1, §2

Compound: Optimal peptide substrate based on fragment of Walsh inhibitor: known PKA peptide substrate, sequence G R T G R R N S I, from the literature (GRTGRRNSI)
fold lower KM than Kemptide [1]: 40 fold

Km [2]: 15 µM
Compound: ARRPMSPKKKA [ARRPMSPKKKA, Ala-Arg-Arg-Pro-Met-Ser-Pro-Lys-Lys-Lys-Ala]

Km [3]: 34 µM
Compound: CC[C@H](C)[C@H](NC(=O)[C@H](CCC(=O)O)NC(=O)[C@H](CCC(=O)O)NC(=O)[C@H](CCC(=O)O)NC(=O)[C@H](C)N)C(=O)N[C@@H](Cc1ccc(O)cc1)C(=O)NCC(=O)N[C@@H](CCC(=O)O)C(=O)N[C@@H](Cc1ccccc1)C(=O)N[C@@H](CCC(=O)O)C(=O)N[C@@H](C)C(=O)N[C@@H](CCCCN)C(=O)N[C@@H](CCCCN)C(=O)N[C@@H](CCCCN)C(=O)N[C@@H](CCCCN)C(=O)O [AEEEIYGEFEAKKKK, Ala-Glu-Glu-Glu-Ile-Tyr-Gly-Glu-Phe-Glu-Ala-Lys-Lys-Lys-Lys]
